Measured values from publication PMC5943490, “Altered Expression of the Malate-Permeable Anion Channel OsALMT4 Reduces the Growth of Rice Under Low Radiance” (Frontiers in Plant Science, 2018).
pIC50: −log10 of the molar value. One block for each molecule: values may come before it.

How the values were obtained:
OsALMT4 [1] = target: T1, OsALMT4 (Oryza sativa, UniProt Q0JPI1); experiment: malate efflux from intact OX5 seedlings, concentration series; details: read-out: Ki (half maximum inhibition)
T1 construct: gene Os01g0221600; full-length, constitutively over-expressed in transgenic rice (homozygous line OX5)
T1 sequence (Q0JPI1 1-524): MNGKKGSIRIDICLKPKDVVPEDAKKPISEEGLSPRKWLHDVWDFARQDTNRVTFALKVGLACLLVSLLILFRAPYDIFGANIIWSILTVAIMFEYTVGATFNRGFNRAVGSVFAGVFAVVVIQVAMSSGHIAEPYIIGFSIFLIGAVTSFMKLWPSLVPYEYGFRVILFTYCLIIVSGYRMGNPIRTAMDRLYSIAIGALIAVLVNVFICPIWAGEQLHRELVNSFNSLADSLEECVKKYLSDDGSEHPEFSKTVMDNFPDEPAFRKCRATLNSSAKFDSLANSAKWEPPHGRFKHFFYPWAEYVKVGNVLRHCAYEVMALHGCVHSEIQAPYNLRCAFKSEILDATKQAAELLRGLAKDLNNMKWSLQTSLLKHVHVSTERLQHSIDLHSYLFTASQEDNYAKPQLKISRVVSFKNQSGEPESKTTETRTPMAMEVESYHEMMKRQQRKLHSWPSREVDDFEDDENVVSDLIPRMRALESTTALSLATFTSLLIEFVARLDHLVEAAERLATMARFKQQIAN

OsALMT4 [2] = target: T1, OsALMT4; experiment: malate efflux from intact OX5 seedlings; details: read-out: malate efflux, % of control at 100 μM
OsALMT4 [3] = target: T1, OsALMT4; experiment: malate efflux from intact OX5 and OX5_null seedlings; details: pH 5.6; transported anion, stereo not told

pIC50 (OsALMT4 [1]): 4.60
SMILES: O=C(O)c1ccccc1O [SA, salicylic acid]

remaining activity at 100 µM (OsALMT4 [2]): < 20%
SMILES: O=C(O)c1cccnc1Nc1cccc(C(F)(F)F)c1 [niflumate]

SMILES: O=C(O)C[C@H](O)C(=O)O [malate]
malate efflux from intact OX5 and OX5_null seedlings (OsALMT4 [3]): SA treatment effectively inhibited malate efflux via OsALMT4 in the transgenic OX lines
